Results: ChEMBL document CHEMBL1149112, “Predicting the cell differentiation activity of 1 alpha,25-dihydroxyvitamin D3 side chain analogues from docking simulations” (J Med Chem, 2004)

How the values were obtained:
[1] = target: T1, Vitamin D3 receptor (Homo sapiens) (UniProt P11473); assay: Binding affinity against Vitamin D3 receptor with reference to compound 1
T1 sequence (whole entry): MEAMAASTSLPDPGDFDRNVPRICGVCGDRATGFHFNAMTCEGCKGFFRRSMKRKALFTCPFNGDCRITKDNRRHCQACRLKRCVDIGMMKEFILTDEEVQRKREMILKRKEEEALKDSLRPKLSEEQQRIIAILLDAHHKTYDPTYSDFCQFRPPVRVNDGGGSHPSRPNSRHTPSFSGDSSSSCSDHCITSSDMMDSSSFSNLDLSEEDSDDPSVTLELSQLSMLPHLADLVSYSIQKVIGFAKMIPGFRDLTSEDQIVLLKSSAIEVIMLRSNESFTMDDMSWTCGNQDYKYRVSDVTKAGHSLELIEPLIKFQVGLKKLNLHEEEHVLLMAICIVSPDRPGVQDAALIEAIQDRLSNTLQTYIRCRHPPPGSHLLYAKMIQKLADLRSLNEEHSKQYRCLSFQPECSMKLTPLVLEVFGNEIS

[2] = target: T1, Vitamin D3 receptor (Homo sapiens); assay: Binding affinity against Vitamin D3 receptor with reference to compound 1; value ranges from 15-30
[3] = target: T1, Vitamin D3 receptor (Homo sapiens); assay: Binding affinity for Vitamin D3 receptor compared to compound 1; value ranges from 5-10
[4] = target: T1, Vitamin D3 receptor (Homo sapiens); assay: Binding affinity against Vitamin D3 receptor with reference to compound 1; value ranges from 2-5

A/Ad [1] | Compound | further results
200 | C=C1/C(=C/C=C2/CCC[C@]3(C)[C@@H]([C@@H](C)CCCCC(O)(CC)CC)CC[C@@H]23)C[C@@H](O)C[C@@H]1O | –
5 | C=C1/C(=C/C=C2/CCC[C@@]3(C)[C@H]2CC[C@H]3[C@@H](C)CCCCC(O)(CC)CC)C[C@@H](O)C[C@@H]1O | –
100 | C=C1/C(=C/C=C2/CCC[C@]3(C)[C@@H]([C@@H](C)CCCC(O)(CC)CC)CC[C@@H]23)C[C@@H](O)C[C@@H]1O | –

The remaining lines, values behind:

Compound | A/Ad [1] | further results
C=C1/C(=C/C=C2/CCC[C@]3(C)[C@@H]([C@@H](C)OCCCC(O)(CC)CC)CC[C@@H]23)C[C@@H](O)C[C@@H]1O | 200000 | –
C=C1/C(=C/C=C2/CCC[C@]3(C)[C@@H](C(C)COCC(C)(C)O)CC[C@@H]23)C[C@@H](O)C[C@@H]1O (some centres undefined) | 0.2 | –
C=C1/C(=C/C=C2/CCC[C@]3(C)[C@@H](C(C)OCCC(O)(CC)CC)CC[C@@H]23)C[C@@H](O)C[C@@H]1O (some centres undefined) | – | A/Ad [2]: 30
C=C1/C(=C/C=C2/CCC[C@]3(C)C(C(C)OCCC(C)(C)O)CC[C@@H]23)C[C@@H](O)C[C@@H]1O (single isomer, unassigned) | – | A/Ad [3]: 10
C=C1/C(=C/C=C2/CCC[C@]3(C)C([C@H](C)OCCCC(O)(CC)CC)CC[C@@H]23)C[C@@H](O)C[C@@H]1O (single isomer, unassigned) | 20 | –
C=C1/C(=C/C=C2/CCC[C@]3(C)[C@@H]([C@H](C)CCCC(O)(CC)CC)CC[C@@H]23)C[C@@H](O)C[C@@H]1O | – | A/Ad [4]: 5
